Series [1] deals with human peripheral blood mononuclear cells. The experiment in a line: Flow Cytometry Analysis: binding to mononuclear cells by fluorescence. Particulars: for binding to human peripheral blood mononuclear cells (fluorescence intensity histogram): FACScan flow cytometer. Format: cell-based. As to the method:
Whole blood was collected by venipuncture into EDTA vacutainer tubes from healthy human donors. PBMCs were separated from whole blood by ficoll hypaque (Sigma Chemicals, St. Louis, Mo.) density gradient centrifugation as described in Testerman. The PBMCs were suspended at 2×10^6 cells/mL in RPMI 1640 medium containing 10% fetal bovine serum, 2 mM L-glutamine and penicillin/streptomycin solution (RPMI complete). […] Following incubation the cells were washed two times with staining buffer (Dulbecco's Phosphate Buffered Saline without calcium and magnesium, 1% heat inactivated fetal bovine serum, and 0.1% sodium azide). The cells were suspended in staining buffer and transferred to 12×75 mm polystyrene tubes for analysis by flow cytometry. Binding to mononuclear cells was determined by fluorescence using a FACScan flow cytometer (purchased from Becton Dickinson).
The histograms of FIGS. 1 and 2 plot the fluorescence intensity with the more highly fluorescent cell populations being seen further to the right. The peak area labeled as M3 in the histograms indicates the fluorescence binding to the monocyte population in the peripheral blood mononuclear cells.
(In general: A flow cytometer gives signals particle by particle.)

Series [2] concerns Peripheral blood mononuclear cells (PBMCs). Kind of series: Cytokine Induction in Human Cells, Test Method 1 (IFN by A549/encephalomyocarditis bioassay, TNF by ELISA). Format: cell-based. Particulars: 24 hours. The source says:
An in vitro human blood cell system is used to assess cytokine induction by compounds of the invention. Activity is based on the measurement of interferon and tumor necrosis factor (α) (IFN and TNF, respectively) secreted into culture media as described by Testerman et. al. in “Cytokine Induction by the Immunomodulators Imiquimod and S27609”, Journal of Leukocyte Biology, 58, 365-372 (September, 1995).
Whole blood from healthy human donors is collected by venipuncture into EDTA vacutainer tubes. Peripheral blood mononuclear cells (PBMCs) are separated from whole blood by Histopaque®-1077 (Sigma Chemicals, St. Louis, Mo.) density gradient centrifugation. The PBMCs are washed twice with Hank's Balanced Salts Solution (Sigma) and are then suspended at 2×10^6 cells/mL in RPMI 1640 medium containing 10% fetal bovine serum, 2 mM L-glutamine and 1% penicillin/streptomycin solution (RPMI complete). 1 mL portions of PBMC suspension are added to 12 or 24 well flat bottom sterile tissue culture plates.
The compounds are solubilized in ethanol, dimethyl sulfoxide or pyrogen free water then diluted with tissue culture water, 0.01N sodium hydroxide or 0.01N hydrochloric acid (The choice of solvent will depend on the chemical characteristics of the compound being tested.). Ethanol or DMSO concentration should not exceed a final concentration of 1% for addition to the culture wells. The compounds are generally tested using a concentration range from about 0.01 μg/mL to about 50 μg/mL.
The solution of test compound is added to the wells containing 1 ml of PBMCs in media. The plates are covered with plastic lids, mixed gently and then incubated for 24 hours at 37° C. with a 5% carbon dioxide atmosphere.
Following incubation the cell-free culture supernatant is removed with a sterile polypropylene pipet and transferred to a 12×75 mm polypropylene tube. The tubes are then centrifuged at 1000 rpm ([…]) for 10 to 15 minutes at 4° C. The supernatant is removed and placed into 2 mL sterile freezing vials. Samples are maintained at −70° C. until analyzed for cytokines.
Interferon concentrations are determined by bioassay using A549 human lung carcinoma cells challenged with encephalomyocarditis. The details of the bioassay method have been described by G. L. Brennan and L. H. Kronenberg in “Automated Bioassay of Interferons in Micro-test Plates”, Biotechniques, June/July, 78, 1983, incorporated herein by reference. Briefly stated the method is as follows: A549 cells are incubated with dilutions of IFN standard or test samples at 37° C. for 24 hours. The incubated cells are then infected with an inoculum of encephalomyocarditis virus. The infected cells are incubated for an additional 24 hours at 37° C. before quantifying for viral cytopathic effect. The viral cytopathic effect is quantified by staining of the wells with a vital dye such as crystal violet followed by visual scoring of the plates. Results are expressed as alpha reference units/mL based on the value obtained for an NIH Human Leukocyte IFN standard.
Tumor necrosis factor (α) (TNF) concentration is determined using an ELISA kit available from Genzyrne, Cambridge, Mass. The results are expressed as pg/ml.
The labeled compound of Example 1 and the unlabeled intermediate (2-(4-amino-2-ethoxymethyl-1H-imidazo[4,5-c]quinolin-1-yl)ethaneamine trihydrochloride) were tested side by side for their ability to induce cytokine biosynthesis using Test Method 1 described above. The compound of Example 1 was solubilized in ethanol. The unlabeled intermediate was solubilized in tissue culture water.
In general terms: ELISA stands for enzyme-linked immunosorbent assay.

For series [3] the test system is unchanged. The experiment in a line: Cytokine Induction in Human Cells, Test Method 2 (IFN-α and TNF-α by ELISA). The series is classed as cell-based. Set-up: key: +: indicates that the compound induced the indicated cytokine at that particular concentration; −: indicates that the compound did not induce the indicated cytokine at that particular concentration. Particulars: 18 to 24 hours. The source says:
An in vitro human blood cell system is used to assess cytokine induction. Activity is based on the measurement of interferon and tumor necrosis factor (α) (IFN and TNF, respectively) secreted into culture media as described by Testerman et. al. In “Cytokine Induction by the Immunomodulators Imiquimod and S-27609”, Journal of Leukocyte Biology, 58, 365-372 (September, 1995).
Whole blood from healthy human donors is collected by venipuncture into EDTA vacutainer tubes. Peripheral blood mononuclear cells (PBMCs) are separated from whole blood by density gradient centrifugation using Histopaque®-1077. The PBMCs are washed twice with -Hank's Balanced Salts Solution and then are suspended at 3-4×10^6 cells/mL in RPMI complete. The PBMC suspension is added to 48 well flat bottom sterile tissue culture plates (Costar, Cambridge, Mass. or Becton Dickinson Labware, Lincoln Park, N.J.) containing an equal volume of RPMI complete media containing test compound.
The compounds are solubilized in dimethyl sulfoxide (DMSO). The DMSO concentration should not exceed a final concentration of 1% for addition to the culture wells. The compounds are generally tested at concentrations ranging from 0.12 to 30 μM.
The solution of test compound is added at 60 μM to the first well containing RPMI complete and serial 3 fold dilutions are made in the wells. The PBMC suspension is then added to the wells in an equal volume, bringing the test compound concentrations to the desired range (0.12 to 30 μM). The final concentration of PBMC suspension is 1.5-2×10^6 cells/mL. The plates are covered with sterile plastic lids, mixed gently and then incubated for 18 to 24 hours at 37° C. in a 5% carbon dioxide atmosphere.
Following incubation the plates are centrifuged for 5-10 minutes at 1000 rpm (˜200×g) at 4° C. The cell-free culture supernatant is removed with a sterile polypropylene pipet and transferred to sterile polypropylene tubes. Samples are maintained at −30 to −70° C. until analysis. The samples are analyzed for interferon (α) and for tumor necrosis factor (α) by ELISA
Interferon (α) concentration is determined by ELISA using a Human Multi-Species kit from PBL Biomedical Laboratories, New Brunswick, N.J. Results are expressed in pg/mL.
Tumor necrosis factor (α) (TNF)concentration is determined using ELISA kits available from Genzyme, Cambridge, Mass.; R&D Systems, Minneapolis, Minn.; or Phanningen, San Diego, Calif. Results are expressed in pg/mL.
The labeled compounds of Examples 2 and 3 were tested for their ability to induce cytokine biosynthesis using Test Method 2 described above.

Broadly, the melting point is the temperature of the solid-liquid transition.

For the compound `Cc1cc(C)n2c1C=C1C=CC(CCC(=O)NCCCCCC(=O)ON3C(=O)CCC3=O)=[N+]1[B-]2(F)F` [BODIPY fluorophore, 6-((4,4-difluoro-5,7-dimethyl4-bora-3a,4a-diaza-s-indacene-3-propionyl)amino)hexanoic acid, succinimidyl ester, reference compound], the “binding to human peripheral blood mononuclear cells (fluorescence intensity histogram)” value in series [1] (incubated 1 hour at 37° C.) is recorded as “does not”.

Turning to `CCOCc1nc2c(N)nc3ccccc3c2n1CCNC(=O)CCCCCNC(=O)CCc1ccc2n1[B-](F)(F)[N+]1=C(C)C=C(C)C1=C2` [Example 1, N-[2-(4-Amino-2-ethoxymethyl-1H-imidazo[4,5-c]quinolin-1-yl)ethyl]-6-[(4,4-difluoro-5,7-dimethyl-4-bora-3a,4a-diaza-s-indacene-3-propionyl)amino]hexanoamide], the “binding to human peripheral blood mononuclear cells (fluorescence intensity histogram)” value in series [1] (incubated 1 hour at 37° C.) is listed as “binds to human peripheral blood mononuclear cells”. The “binding to monocytes compared with other PBMCs” value in series [1] (incubated 1 hour at 37° C., peak area M3 = monocyte population) is “monocytes bind more effectively than other PBMCs”. Also, the binding to monocytes result in series [1] (incubated with human PBMCs at 4° C. for 1 hour) was “did not show significant binding”. For the same compound, the IFN in series [2] (concentration 0.01 μg/ml) was found to be 16 U/ml; in series [2] (concentration 0.03 μg/ml) it was 47 U/ml; in series [2] (concentration 0.1 μg/ml) it was 554 U/ml; in series [2] (concentration 0.3 μg/ml) it was 2878 U/ml; in series [2] (concentration 1 μg/ml), 421 U/ml; in series [2] (concentration 3 μg/ml) it was 62 U/ml. Also, the TNF came to 0 pg/mL in series [2] (concentration 0.01 μg/ml); 42 pg/mL in series [2] (concentration 0.03 μg/ml); 46 pg/mL in series [2] (concentration 0.1 μg/ml); 73 pg/mL in series [2] (concentration 0.3 μg/ml); 369 pg/mL in series [2] (concentration 1 μg/ml); 869 pg/mL in series [2] (concentration 3 μg/ml).

The compound `COCCc1nc2c(N)nc3ccccc3c2n1CCCCNC(=S)Nc1ccc(-c2c3ccc(=O)cc-3oc3cc(O)ccc23)c(C(=O)O)c1` [Example 2] registered a melting point above 245 °C. Moreover, in series [3] (concentration 0.014 μg/ml), the IFN induction result was “−” and the TNF induction result is “−”. Also, in series [3] (concentration 0.041 μg/ml), the IFN induction result is recorded as “−” and the TNF induction entry is given as “−”. Besides, in series [3] (concentration 0.12 μg/ml), the IFN induction entry is “−” and the TNF induction entry is “−”. For the same compound, in series [3] (concentration 0.37 μg/ml), the IFN induction result was “−” and the TNF induction result was “−”. Further, in series [3] (concentration 1.11 μg/ml), the IFN induction result is recorded as “−” and the TNF induction entry is reported as “−”. In series [3] (concentration 3.33 μg/ml), the IFN induction result is on record as “−” and the TNF induction entry is on record as “+”. Besides, in series [3] (concentration 10 μg/ml), the IFN induction result was “+” and the TNF induction entry is listed as “+”. Further, in series [3] (concentration 30 μg/ml), the IFN induction result is listed as “+” and the TNF induction result is “+”.

For `CCCCc1nc2c(N)nc3ccccc3c2n1CCNC(=S)Nc1ccc(-c2c3ccc(=O)cc-3oc3cc(O)ccc23)c(C(=O)O)c1` [Example 3, 5-{[({2-[4-Amino-2-butyl-1H-imidazo[4,5-c]quinolin-1-yl]ethyl}amino)carbonthioyl]amino}-2-(6-hydroxy-3-oxo-3H-xanthen-9-yl)benzoic Acid], the melting point is above 245 °C. Further, in series [3] (concentration 0.014 μg/ml), the IFN induction entry was “−” and the TNF induction result is “−”. In addition, in series [3] (concentration 0.041 μg/ml), the IFN induction result is recorded as “−” and the TNF induction entry is “−”. Besides, in series [3] (concentration 0.12 μg/ml), the IFN induction result was “−” and the TNF induction entry is on record as “−”. Besides, in series [3] (concentration 0.37 μg/ml), the IFN induction result was “−” and the TNF induction result is “−”. In series [3] (concentration 1.11 μg/ml), the IFN induction entry is reported as “−” and the TNF induction entry is on record as “−”. Besides, in series [3] (concentration 3.33 μg/ml), the IFN induction result was “−” and the TNF induction entry is on record as “−”. Besides, in series [3] (concentration 10 μg/ml), the IFN induction entry is recorded as “+” and the TNF induction result was “−”. For the same compound, in series [3] (concentration 30 μg/ml), the IFN induction entry is listed as “+” and the TNF induction entry is on record as “+”.

On to `CCOCc1nc2c(N)nc3ccccc3c2n1CCN.Cl.Cl.Cl` [Unlabeled Intermediate, 2-(4-amino-2-ethoxymethyl-1H-imidazo[4,5-c]quinolin-1-yl)ethaneamine trihydrochloride], for which the IFN was determined as 421 U/ml in series [2] (concentration 0.1 μg/ml); 2878 U/ml in series [2] (concentration 0.3 μg/ml); 2878 U/ml in series [2] (concentration 1 μg/ml); 81 U/ml in series [2] (concentration 3 μg/ml); 140 U/ml in series [2] (concentration 10 μg/ml). Moreover, the TNF was determined as 0 pg/mL in series [2] (concentration 0.1 μg/ml); 0 pg/mL in series [2] (concentration 0.3 μg/ml); 49 pg/mL in series [2] (concentration 1 μg/ml); 538 pg/mL in series [2] (concentration 3 μg/ml); 2640 pg/mL in series [2] (concentration 10 μg/ml).
